The target of the assay is T1, MST1 (Homo sapiens, UniProt Q13043).
T1 sequence (Q13043 1-487): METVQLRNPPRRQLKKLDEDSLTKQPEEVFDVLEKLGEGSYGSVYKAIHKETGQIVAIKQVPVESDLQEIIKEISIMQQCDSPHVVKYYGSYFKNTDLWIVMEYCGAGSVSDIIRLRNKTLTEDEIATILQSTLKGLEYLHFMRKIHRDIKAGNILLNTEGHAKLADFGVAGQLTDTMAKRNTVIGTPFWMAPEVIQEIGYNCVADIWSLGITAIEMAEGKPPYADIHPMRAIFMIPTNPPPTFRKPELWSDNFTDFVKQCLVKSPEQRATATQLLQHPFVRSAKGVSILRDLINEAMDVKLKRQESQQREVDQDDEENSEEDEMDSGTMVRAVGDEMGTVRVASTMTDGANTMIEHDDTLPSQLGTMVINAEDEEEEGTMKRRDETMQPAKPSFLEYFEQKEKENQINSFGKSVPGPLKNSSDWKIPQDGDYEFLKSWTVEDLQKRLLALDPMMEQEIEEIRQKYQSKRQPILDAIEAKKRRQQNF
Briefly: In vitro measurement of MST1 inhibition (Z′-Lyte kinase assay). Format: biochemical.

[1] abbreviates: 1 μM ATP, read-out: IC50 (μM) 1 μM ATP.
Setting [2] is: 50 μM ATP, read-out: IC50 (μM) 50 μM ATP.

Like-named read-outs stand apart in the source and are kept apart here. A value given as a limit tells only on which side of the number the result lay.

Broadly, the IC50 is the point on the concentration scale where inhibition reaches its midpoint.

With `[2H]C1([2H])CNC(=O)c2ccc(-c3nc(-c4ccc(S(=O)(=O)NC5CC5)cc4)cnc3N)cc21` [4-(5-amino-6-(4,4-dideutero-1-oxo-1,2,3,4-tetrahydroisoquinolin-6-yl)pyrazin-2-yl)-N-cyclopropylbenzenesulfonamide], the IC50 by setting is: under setting [1], less than 0.01 µM; under setting [2], less than 0.01 µM.
`CC1(C)C(=O)NC(=O)c2ccc(-c3nc(-c4ccc(S(=O)(=O)NC5CC5)cc4)cnc3N)cc21` [4-(5-amino-6-(4,4-dimethyl-1,3-dioxo-1,2,3,4-tetrahydroisoquinolin-6-yl)pyrazin-2-yl)-N-cyclopropylbenzenesulfonamide]: the IC50 reads like this: under setting [1], less than 0.15 µM; under setting [2], less than 0.15 µM.
For the molecule `Cc1cc(-c2cnc(N)c(-c3ccc4c(c3)C(C)(C)CNC4=O)n2)ccc1S(=O)(=O)NC1CC1` [4-(5-amino-6-(4,4-dimethyl-1-oxo-1,2,3,4-tetrahydroisoquinolin-6-yl)pyrazin-2-yl)-N-cyclopropyl-2-methylbenzenesulfonamide], the IC50 by setting is: under setting [1], less than 0.01 µM; under setting [2], less than 0.01 µM.
Turning to `CN(C1CC1)S(=O)(=O)c1ccc(-c2cnc(N)c(-c3ccc4c(c3)C(C)(C)CNC4=O)n2)cc1` [4-(5-amino-6-(4,4-dimethyl-1-oxo-1,2,3,4-tetrahydroisoquinolin-6-yl)pyrazin-2-yl)-N-cyclopropyl-N-methylbenzenesulfonamide], the IC50 is less than 0.01 µM under setting [1] and less than 0.01 µM under setting [2].
Take `CC1(C)CNC(=O)c2ccc(-c3nc(-c4ccc(S(=O)(=O)NC5CC5)cc4)cnc3N)cc21` [4-(5-amino-6-(4,4-dimethyl-1-oxo-1,2,3,4-tetrahydroisoquinolin-6-yl)pyrazin-2-yl)-N-cyclopropylbenzenesulfonamide]: the IC50 is less than 0.01 µM under setting [1] and less than 0.01 µM under setting [2].
Regarding `CN(C1CC1)S(=O)(=O)c1ccc(-c2cnc(N)c(-c3ccc4c(O)ncc(Br)c4c3)n2)cc1` [4-(5-amino-6-(4-bromo-1-hydroxyisoquinolin-6-yl)pyrazin-2-yl)-N-cyclopropyl-N-methylbenzenesulfonamide], the IC50 was less than 0.01 µM under setting [1] and less than 0.01 µM under setting [2].
On to `CN(C1CC1)S(=O)(=O)c1ccc(-c2cnc(N)c(-c3ccc4c(c3)NCCNC4=O)n2)cc1` [4-(5-amino-6-(5-oxo-2,3,4,5-tetrahydro-1H-benzo[e][1,4]diazepin-8-yl)pyrazin-2-yl)-N-cyclopropyl-N-methylbenzenesulfonamide], for which the IC50 is less than 0.01 µM under setting [1] and less than 0.01 µM under setting [2].
`Nc1ncc(-c2ccc(S(=O)(=O)NC3CC3)cc2)nc1-c1ccc2c(c1)NCCNC2=O` [4-(5-amino-6-(5-oxo-2,3,4,5-tetrahydro-1H-benzo[e][1,4]diazepin-8-yl)pyrazin-2-yl)-N-cyclopropylbenzenesulfonamide]: the IC50 is less than 0.01 µM under setting [1] and less than 0.01 µM under setting [2].
On to `Cc1cc(-c2cnc(N)c(-c3ccc4c(c3)OCCNC4=O)n2)ccc1S(=O)(=O)NC1CC1` [4-(5-amino-6-(5-oxo-2,3,4,5-tetrahydrobenzo[f][1,4]oxazepin-8-yl)pyrazin-2-yl)-N-cyclopropyl-2-methylbenzenesulfonamide], for which the IC50 is less than 0.05 µM under setting [1] and less than 0.01 µM under setting [2].
For `CN(C1CC1)S(=O)(=O)c1ccc(-c2cnc(N)c(-c3ccc4c(c3)OCCNC4=O)n2)cc1` [4-(5-amino-6-(5-oxo-2,3,4,5-tetrahydrobenzo[f][1,4]oxazepin-8-yl)pyrazin-2-yl)-N-cyclopropyl-N-methylbenzenesulfonamide], in that order: less than 0.01 µM and less than 0.01 µM.
For `Nc1ncc(-c2ccc(S(=O)(=O)NC3CC3)cc2)nc1-c1ccc2c(c1)OCCNC2=O` [4-(5-amino-6-(5-oxo-2,3,4,5-tetrahydrobenzo[f][1,4]oxazepin-8-yl)pyrazin-2-yl)-N-cyclopropylbenzenesulfonamide], in that order: less than 0.01 µM and less than 0.01 µM.
On to `Nc1ncc(-c2ccc(S(=O)(=O)NC3CC3)cc2)nc1-c1ncc(-c2ccccc2)[nH]1` [4-(5-amino-6-(5-phenyl-1H-imidazol-2-yl)pyrazin-2-yl)-N-cyclopropylbenzenesulfonamide], for which, under setting [2], the IC50 was less than 0.05 µM.
For `CN(C1CC1)S(=O)(=O)c1ccc(-c2cnc(N)c(-c3cc4c(cn3)C(=O)NCC4)n2)cc1` [4-(5-amino-6-(8-oxo-5,6,7,8-tetrahydro-2,7-naphthyridin-3-yl)pyrazin-2-yl)-N-cyclopropyl-N-methylbenzenesulfonamide], the IC50 reads like this: under setting [1], less than 0.01 µM; under setting [2], less than 0.01 µM.
Turning to `Nc1ncc(-c2ccc(S(=O)(=O)NC3CC3)cc2)nc1-c1cc2c(cn1)C(=O)NCC2` [4-(5-amino-6-(8-oxo-5,6,7,8-tetrahydro-2,7-naphthyridin-3-yl)pyrazin-2-yl)-N-cyclopropylbenzenesulfonamide], the IC50 by setting is: under setting [1], less than 0.01 µM; under setting [2], less than 0.01 µM.
`N#Cc1ccc(-c2cnc(N)c(-c3cc4c(cn3)C(=O)NCC4)n2)cc1` [4-(5-amino-6-(8-oxo-5,6,7,8-tetrahydro-2,7-naphthyridin-3-yl)pyrazin-2-yl)benzonitrile]: the IC50 is, setting by setting: under setting [1], less than 0.01 µM; under setting [2], less than 0.01 µM.
`CN(C1CC1)S(=O)(=O)c1ccc(-c2cnc(N)c(C#Cc3ccnc(O)c3)n2)cc1` [4-(5-amino-6-((2-hydroxypyridin-4-yl)ethynyl)pyrazin-2-yl)-N-cyclopropyl-N-methylbenzenesulfonamide]: the IC50 reads like this: under setting [1], less than 0.15 µM; under setting [2], less than 0.05 µM.
The matching figures for `CC(=O)N1CC(C)(C)c2cc(-c3nc(-c4ccc(S(=O)(=O)N(C)C5CC5)cc4)cnc3N)ccc21` [4-(6-(1-acetyl-3,3-dimethylindolin-5-yl)-5-aminopyrazin-2-yl)-N-cyclopropyl-N-methylbenzenesulfonamide]: less than 0.05 µM and less than 0.01 µM.
Turning to `CN(C1CC1)S(=O)(=O)c1ccc(-c2cc(-c3ccc4c(c3)CCNC4=O)c(N)nn2)cc1` [4-(6-amino-5-(1-oxo-1,2,3,4-tetrahydroisoquinolin-6-yl)pyridazin-3-yl)-N-cyclopropyl-N-methylbenzenesulfonamide], the IC50 runs as follows: under setting [1], less than 0.05 µM; under setting [2], less than 0.01 µM.
In the case of `Nc1ncc(-c2ccc(S(=O)(=O)NC3CC3)c(Cl)c2)cc1-c1ccc2c(c1)CCNC2=O` [4-(6-amino-5-(1-oxo-1,2,3,4-tetrahydroisoquinolin-6-yl)pyridin-3-yl)-2-chloro-N-cyclopropylbenzenesulfonamide], the IC50 under setting [1] is less than 0.01 µM and the IC50 under setting [2] is less than 0.01 µM.
`Nc1ncc(-c2ccc(S(=O)(=O)N(CC(F)(F)F)C3CCC3)cc2)cc1-c1ccc2c(c1)CCNC2=O` [4-(6-amino-5-(1-oxo-1,2,3,4-tetrahydroisoquinolin-6-yl)pyridin-3-yl)-N-cyclobutyl-N-(2,2,2-trifluoroethyl)benzenesulfonamide]: the IC50 reads like this: under setting [1], less than 0.05 µM; under setting [2], less than 0.01 µM.
Turning to `Nc1ncc(-c2ccc(S(=O)(=O)NC3CCC3)cc2)cc1-c1ccc2c(c1)CCNC2=O` [4-(6-amino-5-(1-oxo-1,2,3,4-tetrahydroisoquinolin-6-yl)pyridin-3-yl)-N-cyclobutylbenzenesulfonamide], the IC50 under setting [1] was less than 0.01 µM and the concentration for half-maximal inhibition (IC50) under setting [2] was less than 0.01 µM.
`Nc1ncc(-c2ccc(S(=O)(=O)NC3CC3)c(F)c2)cc1-c1ccc2c(c1)CCNC2=O` [4-(6-amino-5-(1-oxo-1,2,3,4-tetrahydroisoquinolin-6-yl)pyridin-3-yl)-N-cyclopropyl-2-fluorobenzenesulfonamide]: the IC50 was less than 0.01 µM under setting [1] and less than 0.01 µM under setting [2].
For the molecule `Cc1cc(-c2cnc(N)c(-c3ccc4c(c3)CCNC4=O)c2)ccc1S(=O)(=O)N(C)C1CC1` [4-(6-amino-5-(1-oxo-1,2,3,4-tetrahydroisoquinolin-6-yl)pyridin-3-yl)-N-cyclopropyl-N,2-dimethylbenzenesulfonamide], the IC50 runs as follows: under setting [1], less than 0.01 µM; under setting [2], less than 0.01 µM.
Take `Nc1ncc(-c2ccc(S(=O)(=O)NC3CC3)cc2)cc1-c1ccc2c(c1)CCNC2=O` [4-(6-amino-5-(1-oxo-1,2,3,4-tetrahydroisoquinolin-6-yl)pyridin-3-yl)-N-cyclopropylbenzenesulfonamide]: the IC50 under setting [1] is less than 0.01 µM and the IC50 under setting [2] is less than 0.01 µM.
For the molecule `CCN(C)S(=O)(=O)c1ccc(-c2cnc(N)c(-c3ccc4c(c3)CCNC4=O)c2)cc1` [4-(6-amino-5-(1-oxo-1,2,3,4-tetrahydroisoquinolin-6-yl)pyridin-3-yl)-N-ethyl-N-methylbenzenesulfonamide], the 50% inhibitory concentration (IC50) under setting [1] was less than 0.01 µM and the IC50 under setting [2] is less than 0.01 µM.
`CN(C1CC1)S(=O)(=O)c1ccc(-c2cnc(N)c(-c3ccc4c(=O)[nH]ccc4c3)c2)cc1` [4-(6-amino-5-(1-oxo-1,2-dihydroisoquinolin-6-yl)pyridin-3-yl)-N-cyclopropyl-N-methylbenzenesulfonamide]: the IC50 was less than 0.01 µM under setting [1] and less than 0.01 µM under setting [2].
With `CN(C1CC1)S(=O)(=O)c1ccc(-c2cnc(N)c(-c3ccc4c(c3)CCCNC4=O)c2)cc1` [4-(6-amino-5-(1-oxo-2,3,4,5-tetrahydro-1H-benzo[c]azepin-7-yl)pyridin-3-yl)-N-cyclopropyl-N-methylbenzenesulfonamide], the IC50 under setting [1] is less than 0.01 µM and the IC50 under setting [2] is less than 0.01 µM.
Regarding `Nc1ncc(-c2ccc(S(=O)(=O)NC3CC3)cc2)cc1-c1ccc2c(c1)CCCNC2=O` [4-(6-amino-5-(1-oxo-2,3,4,5-tetrahydro-1H-benzo[c]azepin-7-yl)pyridin-3-yl)-N-cyclopropylbenzenesulfonamide], the IC50 was less than 0.01 µM under setting [1] and less than 0.01 µM under setting [2].

For the origin of these results see US8440652B2, “MST1 kinase inhibitors and methods of their use” (Lexicon Pharmaceuticals, Inc., priority 2011, dated 2013).
